Source: patent US20140187505A1, “Cardiac Glycosides to Treat Cystic Fibrosis and Other IL-8 Dependent Disorders” (priority 2002, published 2014)
pIC50: −log10 of the molar value. Like-named read-outs stand apart in the source and are kept apart here.

Key:
[1] = test system: guinea-pig heart Na^+-K^+-ATPase; settings: cited from earlier work
[2] = eluent acetonitrile/water 45:55; cited from earlier work
[3] = mobile phase: methanol/water 30:70; cited from earlier work
[4] = octanol/water (20 mM TRIS-HCl, pH 7.4), cited from earlier work
[5] = test system: IL-8 secretion from cystic fibrosis lung epithelial IB3-1 cells

| Compound | ID50 [1] | K retentions for reversed-phase high pressure liquid chromatography [2] | RM values (lipophilicity, reversed-phase thin layer chromatography) [3] | P (partition coefficient in octanol/water system) [4] | Activity on IL-8 secretion ([5]; at a concentration of 1000 nM (1 micromolar)) | pIC50 ([5]; read-out: IC50 nmol/L in cells, 50% suppression of spontaneous IL-8 secretion, IB3-1 cells, 48 hours) | R values for reversed-phase thin layer chromatography [3] | P (partition coefficient in octanol/water system) ([4]; listed as B-methyl digitoxin) |
| --- | --- | --- | --- | --- | --- | --- | --- | --- |
| 12-Acetyl-β-methyldigoxin | 25.55 ± 1.70 ×10^−4 mol l^−1 | 4.04 | 1.26 | 746.0 ± 71.3 |  |  |  |  |
| CC(=O)O[C@H]1CC[C@@]2(C)[C@H](CC[C@@H]3[C@@H]2C[C@@H](OC(C)=O)[C@]2(C)[C@@H](C4=CC(=O)OC4)CC[C@]32O)C1 (single isomer, unassigned; diac) [digoxigenin3,12 diAC, digoxigenin 3,12 diAC] |  |  |  |  | entirely inactive | < 6.00 |  |  |
| CC(=O)O[C@@H]1C[C@H]2[C@@H](CC[C@@H]3C[C@@H](O[C@H]4C[C@H](O)[C@H](O[C@H]5C[C@H](O)[C@H](O[C@H]6C[C@H](O)[C@H](O)[C@@H](C)O6)[C@@H](C)O5)[C@@H](C)O4)CC[C@@]32C)[C@@]2(O)CC[C@H](C3=CC(=O)OC3)[C@@]12C [12-Acetyldigoxin] | 20.90 ± 0.98 ×10^−4 mol l^−1 | 1.60 | 0.89 | 195.0 ± 17.5 |  |  |  |  |
| CC(=O)O[C@H]1C[C@]2(O)[C@@H]3CC[C@@H]4C[C@@H](O[C@H]5C[C@H](O)[C@H](O[C@H]6C[C@H](O)[C@H](O[C@H]7C[C@H](O)[C@H](O)[C@@H](C)O7)[C@@H](C)O6)[C@@H](C)O5)CC[C@]4(C)[C@H]3CC[C@]2(C)[C@H]1C1=CC(=O)OC1 [16-Acetylgitoxin] | 0.85 ± 0.01 ×10^−4 mol l^−1 | 2.27 | 0.89 | 144.0 ± 32.8 |  |  |  |  |
| C[C@H]1O[C@@H](O[C@H]2[C@@H](O)C[C@H](O[C@H]3[C@@H](O)C[C@H](O[C@H]4CC[C@@]5(C)[C@H](CC[C@@H]6[C@@H]5CC[C@]5(C)[C@@H](C7=CC(=O)OC7)[C@@H](OC=O)C[C@]65O)C4)O[C@@H]3C)O[C@@H]2C)C[C@H](O)[C@@H]1O [16-Formylgitoxin] | 0.78 ± 0.01 ×10^−4 mol l^−1 | 1.82 | 0.84 | 110.9 ± 6.2 |  |  |  |  |
| C[C@H]1O[C@@H](O[C@H]2[C@@H](O)C[C@H](O[C@H]3[C@@H](O)C[C@H](O[C@H]4CC[C@@]5(C)[C@H](CC[C@@H]6[C@@H]5CC[C@]5(C)[C@H](C7COC(=O)C7)CC[C@]65O)C4)O[C@@H]3C)O[C@@H]2C)C[C@H](O)[C@@H]1O (stereo partly drawn) [Dihydro-digitoxin] | 32.40 ± 2.85 ×10^−4 mol l^−1 | 3.40 | 1.42 | 800.0 ± 112.0 |  |  |  |  |
| C[C@@H]1O[C@@H](O[C@H]2C[C@@H](O)[C@]3(CO)[C@H]4[C@H](O)C[C@]5(C)[C@@H]([C@@H]6COC(=O)C6)CC[C@]5(O)[C@@H]4CC[C@]3(O)C2)[C@H](O)[C@H](O)[C@H]1O [Dihydro-ouabain] | 45.50 ± 3.90 ×10^−4 mol l^−1 | 0.15 | −0.71 | 0.20 ± 0.00 |  |  |  |  |
| C[C@H]1O[C@@H](O[C@H]2CC[C@@]3(C)[C@H](CC[C@@H]4[C@@H]3CC[C@]3(C)[C@@H](C5=CC(=O)OC5)[C@@H](O)C[C@]43O)C2)C[C@H](O)[C@@H]1O [Gitoxigenin-mono-digitoxoside] | 2.56 ± 0.21 ×10^−4 mol l^−1 | 0.83 | 0.46 | 60.1 ± 10.0 |  |  |  |  |
| C[C@]12CC[C@H](O)C[C@H]1CC[C@@H]1[C@@H]2CC[C@]2(C)[C@@H](C3=CC(=O)OC3)[C@@H](O)C[C@]12O [Gitoxigenin] | 21.37 ± 0.97 ×10^−4 mol l^−1 | 0.67 | 0.38 | 44.1 ± 1.8 |  |  |  |  |
| C[C@H]1O[C@@H](O[C@H]2[C@@H](O)C[C@H](O[C@H]3[C@@H](O)C[C@H](O[C@H]4CC[C@@]5(C)[C@H](CC[C@@H]6[C@@H]5CC[C@]5(C)[C@@H](C7=CC(=O)OC7)[C@@H](O)C[C@]65O)C4)O[C@@H]3C)O[C@@H]2C)C[C@H](O)[C@@H]1O [Gitoxin] | 2.55 ± 0.14 ×10^−4 mol l^−1 | 1.28 | 0.68 | 48.0 ± 11.2 |  |  |  |  |
| CC(=O)O[C@H]1[C@@H](OC(C)=O)C[C@H](O[C@H]2[C@@H](OC(C)=O)C[C@H](O[C@H]3[C@@H](OC(C)=O)C[C@H](O[C@H]4CC[C@@]5(C)[C@H](CC[C@@H]6[C@@H]5CC[C@]5(C)[C@@H](C7=CC(=O)OC7)[C@@H](OC(C)=O)C[C@]65O)C4)O[C@@H]3C)O[C@@H]2C)O[C@@H]1C [Pentaacetylgitoxin] | 112.00 ± 10.70 ×10^−4 mol l^−1 | 49.45 | 1.86 | 2890.0 ± 668.0 |  |  |  |  |
| C[C@H]1O[C@@H](O[C@H]2[C@@H](OC=O)C[C@H](O[C@H]3[C@@H](OC=O)C[C@H](O[C@H]4CC[C@@]5(C)[C@H](CC[C@@H]6[C@@H]5CC[C@]5(C)[C@@H](C7=CC(=O)OC7)[C@@H](OC=O)C[C@]65O)C4)O[C@@H]3C)O[C@@H]2C)C[C@H](OC=O)[C@@H]1OC=O [Pentaformylgitoxin] | 0.23 ± 0.00 ×10^−4 mol l^−1 | 8.99 | 1.85 | 1440.0 ± 118.3 |  |  |  |  |
| C[C@]12CC[C@H]3[C@@H](CC[C@]4(O)C[C@@H](O)CC[C@]34C=O)[C@@]1(O)CC[C@@H]2C1=CC(=O)OC1 [k-Strophanthidin] | 17.80 ± 0.81 ×10^−4 mol l^−1 | 0.42 |  | 3.60 ± 0.5 |  |  | −0.14 |  |
| CO[C@H]1C[C@H](O[C@H]2CC[C@]3(C=O)[C@H]4CC[C@]5(C)[C@@H](C6=CC(=O)OC6)CC[C@]5(O)[C@@H]4CC[C@]3(O)C2)O[C@H](C)[C@H]1O [k-Strophanthin-α] | 1.29 ± 0.14 ×10^−4 mol l^−1 | 0.79 | −0.09 | 4.40 ± 0.3 |  |  |  |  |
| CO[C@H]1C[C@H](O[C@H]2CC[C@]3(C=O)[C@H]4CC[C@]5(C)[C@@H](C6=CC(=O)OC6)CC[C@]5(O)[C@@H]4CC[C@]3(O)C2)O[C@H](C)[C@H]1O[C@@H]1O[C@H](CO)[C@@H](O)[C@H](O)[C@H]1O [k-Strophanthin-β] | 2.51 ± 0.12 ×10^−4 mol l^−1 | 0.22 | −0.50 | 0.11 ± 0.01 |  |  |  |  |
| CO[C@H]1C[C@H](O[C@H]2CC[C@]3(C=O)[C@H]4CC[C@]5(C)[C@@H](C6=CC(=O)OC6)CC[C@]5(O)[C@@H]4CC[C@]3(O)C2)O[C@H](C)[C@H]1O[C@@H]1O[C@H](CO[C@@H]2O[C@H](CO)[C@@H](O)[C@H](O)[C@H]2O)[C@@H](O)[C@H](O)[C@H]1O [k-Strophanthin-γ] | 2.47 ± 0.25 ×10^−4 mol l^−1 | 0.21 | −0.62 | 0.15 ± 0.07 |  |  |  |  |
| COC1C(O)CC(OC2C(O)CC(OC3C(O)CC(OC4CCC5(C)C(CCC6C5CCC5(C)C(C7=CC(=O)OC7)CCC65O)C4)OC3C)OC2C)OC1C (stereo not drawn) [β-Methyldigitoxin] | 0.40 ± 0.03 ×10^−4 mol l^−1 | 8.28 | 1.71 | 1300.0 ± 227.0 |  |  |  | 1300 |
| CO[C@H]1[C@@H](O)C[C@H](O[C@H]2[C@@H](O)C[C@H](O[C@H]3[C@@H](O)C[C@H](O[C@H]4CC[C@@]5(C)[C@H](CC[C@@H]6[C@@H]5C[C@@H](O)[C@]5(C)[C@@H](C7=CC(=O)OC7)CC[C@]65O)C4)O[C@@H]3C)O[C@@H]2C)O[C@@H]1C [β-Methyldigoxin] | 1.55 ± 0.06 ×10^−4 mol l^−1 | 1.19 |  | 63.3 ± 20.9 |  |  |  |  |
| Dihydro-digoxin | 40.90 ± 3.35 ×10^−4 mol l^−1 | 0.51 | 0.24 |  |  |  |  |  |
| α,β-Diacetyldigoxin | 1.27 ± 0.02 ×10^−4 mol l^−1 | 4.31 | 1.16 | 392.0 ± 82.0 |  |  |  |  |
| α,β-Dimethyldigoxin | 1.28 ± 0.06 ×10^−4 mol l^−1 | 2.76 | 0.94 | 138.0 ± 12.1 |  |  |  |  |
| α-Acetyldigoxin | 2.50 ± 0.31 ×10^−4 mol l^−1 | 0.99 | 0.50 | 54.6 ± 7.8 |  |  |  |  |
| α-Methyldigoxin | 2.23 ± 0.11 ×10^−4 mol l^−1 | 1.13 | 0.54 | 56.6 ± 9.8 |  |  |  |  |
| β-Acetyldigoxin | 1.60 ± 0.02 ×10^−4 mol l^−1 | 1.25 | 0.70 | 99.2 ± 4.1 |  |  |  |  |
